This test concerns N-nitrosodiethylamine (NDEA)-induced tumors in lung and liver. Kind of test: Carcinogen-induced oncogenesis in liver and lung. It counts as in vivo, mouse (B6C3F1 strain). Conditions: for incidence of NDEA-induced hepatic tumor (words): oral HD-2, FIG. 6. The protocol: To examine the inhibitory effect of HD-2 on carcinogen-induced oncogenesis, N-nitrosodiethylamine (NDEA) was injected as a carcinogen into peritoneal cavity of mouse (B6C3F1 strain) at a concentration of 90 mg per kg body weight to induce cancer. At 2, 4, 8, 16, and 32 weeks after carcinogen injection, […] of HD-2 was administered orally and the same amount of distilled water was injected into control group. Forty-two weeks after NDEA treatment, mice were sacrificed to measure the incidence and the size of tumors formed in lung and liver. […] The incidence of NDEA-induced hepatic tumor was above 90%, but following HD-2 administration, the incidence was lowered to 5 to 22%, despite of variation depending on the period of HD-2 administration. Thus HD-2 inhibited carcinogen-induced oncogenesis in liver by 78 to 95. […] In lung, the inhibitory effect of HD-2 on reducing carcinogen-induced oncogenesis was not so dramatic as in liver. However, if HD-2 was given at 4 weeks after NDEA injection, carcinogen-induced oncogenesis was inhibited by 30%.

In the case of `O1[As]2O[As]3O[As]1O[As](O2)O3` [HD-2, arsenic hexoxide (As4O6)], the “incidence of NDEA-induced hepatic tumor (words)” value is given as “effectively inhibited”. The “incidence of NDEA-induced lung cancer” value (FIG. 7) is reported as “decreases the incidence of lung cancer”. Further, under “HD-2 given at 4 weeks after NDEA injection”, the “inhibition of carcinogen-induced oncogenesis in lung” value worked out at 30%. For the same compound, for the setting “HD-2 group, FIG. 7”, the “number of tumor masses in lung” value is given as “about 2”. For the same compound, where the note is “oral HD-2”, the “spontaneous cancers of lung” value is listed as “completely suppressed” and the spontaneous hepatoma entry was “inhibited spontaneous hepatoma completely”. Moreover, the “incidence of NDEA-induced hepatic tumor (words)” value (listed as As4O6) is listed as “decreases hepatoma incidence”.

Source of the values: patent US7261906B2, “Anti-cancer therapy agent of arsenic hexoxide (As4O6) of a natural chemical substance and its pharmaceutical composition” (priority 1998, dated 2007).
